In article PMC8510097 (Molecules, 2021):
Read-outs that look alike come from different tables or passages of the source.

Legend:
[1] = tested on: SARS-CoV-2 strain JPN/TY/WK-521; assay: Antiviral assay, quantitative VeroE6 cell-based assay with RNA-qPCR
[2] = tested on: SARS-CoV-2; assay: Antiviral CPE protection assay in VeroE6 cells in the presence of P-glycoprotein inhibitor CP-100356 (CellTiter-Glo); format: cell-based; conditions: 2µM CP-100356, MOI 0.01, 72 hours
[3] = biological target: T1, SARS-CoV-2 3CLpro (Severe acute respiratory syndrome coronavirus 2, UniProt P0DTD1); assay: SARS-CoV-2 3CLpro inhibition assay, continuous fluorescence with FRET substrate UIVT3; format: biochemical
[4] = tested on: SARS-CoV-2 strain JPN/TY/WK-521; design: method as in PMID 32820005, PMID 33510133; conditions: VeroE6 cells; read-out: antiviral EC50; cited from earlier work
[5] = tested on: SARS-CoV-2^wk-521; design: method as in PMID 32820005, PMID 33510133; conditions: VeroE6 cells; cited from earlier work
[6] = biological target: T1, SARS-CoV-2 3CLpro; assay: Mass analysis of enzyme-inhibitor complex (LC-MS); conditions: 2 μM protein, 20 μM compound, ten minutes
Experimental: The enzyme inhibitory activity (IC50 values) of synthetic active esters was assessed using a continuous fluorescence assay and the FRET-based substrate UIVT3 (HiLyteFluor488^TM-[…] -QXL520-NH2 (HPLC > 90%); Anaspec, Fremont, CA, USA) described by us previously. The antiviral activity (EC50 value) of compounds was evaluated using quantitative VeroE6 cell-based assay with RNA-qPCR as described by us recently. […] We presume that the mode of inhibition involves covalent bond formation with catalytic Cys145 as observed in our previous X-ray structural analysis of inhibitor-bound SARS-CoV-2 3CL protease as well as mass spectral analysis. The irreversible enzyme acylation of the NSAIDs-based inhibitor was examined by using […]. Authentic SARS-CoV-2 3CLpro was incubated with inhibitor 8a and then analyzed with untreated enzyme. As expected, we were able to see a signal for enzyme-bound compound 8a on the LC–MS spectrum that corresponds to acylation of 3CL protease with a mass shift of +212 Daltons.
Purified SARS-CoV-2 3CLpro was injected onto a Superdex™ 200 Increase 10/300 GL gel filtration column (GE Healthcare) equilibrated in 20 mM HEPES pH 7.5. […]
Positive ion spectra obtained were analyzed using Agilent MassHunter Qualitative Analysis Software B.06 and the deconvolution spectra were generated using Agilent MassHunter BioConfirm software B.06.

[7] = tested on: SARS-CoV 3CL protease; conditions: Figure 1; read-out: IC50 (SARS-CoV 3C); cited from earlier work
[8] = tested on: SARS-CoV; conditions: cited from earlier work
[9] = Severe acute respiratory syndrome coronavirus 2, Vero C1008, 72 h, VeroE6 cells, RNA-qPCR, MOI 0.05, 72 h, read-out: SARS-CoV-2 EC50
[10] = 10 min pre-incubation of enzyme with compound, read-out: SARS CoV-2 3CLpro IC50
[11] = VeroE6 cells, RNA-qPCR, MOI 0.05, 72 h, read-out: SARS-CoV-2 EC50
[12] = values given in nM, read-out: SARS-CoV-2 3CLpro enzyme IC50

Cc1ccc(O)c(C(=O)Oc2cncc(Cl)c2)c1 [Compound 15a, 5-chloropyridin-3-yl 2-hydroxy-5-methylbenzoate]
EC50 [1, 9]: 24 to 64 µM
antiviral activity in the presence of P-glycoprotein inhibitor CP-100356 [2]: none of these compounds exhibited any significant antiviral activity

O=C(Oc1ccccc1C(=O)Oc1cncc(Cl)c1)c1ccccc1O [Compound 12b, 5-chloropyridin-3-yl 2-((2-hydroxybenzoyl)oxy)benzoate]
fold reduction in enzyme activity versus monoester 12a [3]: 5 fold
EC50 [1, 9]: 64 µM

Cc1ccc(O)c(C(=O)Oc2ccc(C)cc2C(=O)Oc2ccc(C)cc2C(=O)Oc2cncc(Cl)c2)c1 [C00014]
IC50 [3, 10]: 3730 nM
EC50 [1, 9]: > 100 µM

O=C(Oc1cncc(Cl)c1)c1c(O)cccc1F [C00017]
IC50 [3, 10]: 108000 nM
EC50 [1, 9]: > 100 µM

CCC(CC)COC(=O)[C@H](C)N[P@](=O)(OC[C@H]1O[C@@](C#N)(c2ccc3c(N)ncnn23)[C@H](O)[C@@H]1O)Oc1ccccc1 [Compound 5, remdesivir, reference compound]
EC50 ([1]; Severe acute respiratory syndrome coronavirus 2, Vero C1008, read-out: antiviral EC50 (table footnote a, reference compounds), VeroE6 cells): 2.4 µM

CC(C)Cc1ccc(C(C)C(=O)Oc2cncc(Cl)c2)cc1 (stereo not shown) [C00004]
IC50 [3, 10]: 810 nM
EC50 [1, 9]: > 100 µM

CC(=O)Nc1cc(C(=O)Oc2cncc(Cl)c2)ccc1F [C00019]
IC50 [3, 10]: 1510 nM
EC50 [1, 9]: > 100 µM

O=C(Oc1ccccc1C(=O)Oc1cncc(Cl)c1)c1ccccc1O [C00007]
IC50 [3, 10]: 17100 nM
EC50 [1, 11]: 63.7 µM

CC(=O)Nc1cccc(C(=O)Oc2cncc(Cl)c2)c1 [C00018]
IC50 [3, 10]: 1110 nM
EC50 [1, 9]: > 100 µM

O=C(Oc1cncc(Cl)c1)c1cccc2c1CCN2 [Compound 4]
EC50 [4]: 15 µM
activity in immunocytochemistry assay (in words) [5]: potent enzyme inhibitory and antiviral activity

CC(=O)Nc1cccc(C(=O)Oc2cncc(Cl)c2)c1 [Compound 18a, 5-chloropyridin-3-yl 3-acetamidobenzoate]
enzyme inhibitory activity (in words) [3]: low micromolar range

O=C(Oc1cncc(Cl)c1)c1cccc2[nH]ccc12 [Compound 3]
activity in immunocytochemistry assay (in words) [5]: blocked the infectivity and cytopathic effect

COc1ccc2cc([C@H](C)C(=O)Oc3cncc(Cl)c3)ccc2c1 [Compound 8a, 5-chloropyridin-3-yl (S)-2-(6-methoxynaphthalen-2-yl)propanoate]
IC50 [3, 12]: 670 nM
mass shift of 3CL protease on acylation by inhibitor [6]: +212 Daltons

O=C(On1nnc2ccccc21)c1ccc2[nH]ccc2c1 [Compound 1]
IC50 [7]: 200 nM
antiviral activity (in words) [8]: did not show antiviral activity

Cc1cccc(C(=O)Oc2cncc(Cl)c2)c1O [Compound 13a, 5-chloropyridin-3-yl 2-hydroxy-3-methylbenzoate]
IC50 [3, 12]: 650 nM

O=C(Oc1cncc(Cl)c1)c1ccccc1O [Compound 12a, 5-chloropyridin-3-yl 2-hydroxybenzoate]
IC50 [3, 10]: 3470 nM

COc1ccc2c(c1)c(CC(=O)Oc1cncc(Cl)c1)c(C)n2C(=O)c1ccc(Cl)cc1 [C00005]
IC50 [3, 10]: 5320 nM
EC50 [1, 11]: 30.2 µM

CC(=O)Nc1cc(C(=O)Oc2cncc(Cl)c2)ccc1F [Compound 19a, 5-chloropyridin-3-yl 3-acetamido-4-fluorobenzoate]
enzyme inhibitory activity (in words) [3]: low micromolar range

Cc1ccc(O)c(C(=O)Oc2ccc(C)cc2C(=O)Oc2cncc(Cl)c2)c1 [C00013]
IC50 [3, 10]: 740 nM
EC50 [1, 11]: 48.3 µM

O=C(Oc1cncc(Cl)c1)c1ccccc1O [C00006]
EC50 [1, 9]: > 100 µM

COc1ccc2cc([C@@H](C)C(=O)Oc3cncc(Cl)c3)ccc2c1 [C00003]
IC50 [3, 10]: 160 nM
EC50 [1, 9]: > 100 µM

Cc1cccc(C(=O)Oc2cncc(Cl)c2)c1O [C00008]
IC50 [3, 10]: 650 nM
EC50 [1, 9]: > 100 µM

Cc1ccc(O)c(C(=O)Oc2cncc(Cl)c2)c1 [C00012]
IC50 [3, 10]: 390 nM
EC50 [1, 11]: 46.3 µM

Cc1ccc(C(=O)Oc2cc(C)ccc2C(=O)Oc2cncc(Cl)c2)c(O)c1 [C00011]
IC50 [3, 10]: 1400 nM
EC50 [1, 9]: > 100 µM

Cc1ccc(C(=O)Oc2cncc(Cl)c2)c(O)c1 [C00010]
IC50 [3, 10]: 540 nM
EC50 [1, 9]: > 100 µM

Cc1cccc(O)c1C(=O)Oc1cccc(C)c1C(=O)Oc1cncc(Cl)c1 [C00016]
IC50 [3, 10]: 15400 nM
EC50 [1, 9]: > 100 µM

COc1ccc2cc([C@@H](C)C(=O)Oc3cncc(Cl)c3)ccc2c1 [Compound 9a, 5-chloropyridin-3-yl (R)-2-(6-methoxynaphthalen-2-yl)propanoate]
fold improvement of enzyme IC50 over the (S)-naproxen ester 8a [3]: over 4 fold
IC50 [3, 12]: 160 nM
antiviral activity in the presence of P-glycoprotein inhibitor CP-100356 [2]: none of these compounds exhibited any significant antiviral activity

Cc1cccc(C(=O)Oc2c(C)cccc2C(=O)Oc2cncc(Cl)c2)c1O [C00009]
IC50 [3, 10]: 4900 nM
EC50 [1, 11]: 23.8 µM

Cc1cccc(C(=O)Oc2c(C)cccc2C(=O)Oc2cncc(Cl)c2)c1O [Compound 13b, 5-chloropyridin-3-yl 2-((2-hydroxy-3-methylbenzoyl)oxy)-3-methylbenzoate]
IC50 [3, 10]: 4900 nM
EC50 [1, 9]: 24 µM

CC(C)Cc1ccc(C(C)C(=O)Oc2cncc(Cl)c2)cc1 (stereo not shown) [Compound 10a, 5-chloropyridin-3-yl 2-(4-isobutylphenyl)propanoate]
IC50 [3, 12]: 810 nM

Cc1ccc(C(=O)Oc2cncc(Cl)c2)c(O)c1 [Compound 14a, 5-chloropyridin-3-yl 2-hydroxy-4-methylbenzoate]
antiviral activity in the presence of P-glycoprotein inhibitor CP-100356 [2]: none of these compounds exhibited any significant antiviral activity

CC(=O)Oc1ccccc1C(=O)Oc1cncc(Cl)c1 [C00001]
IC50 [3, 10]: 360 nM

COc1ccc2c(c1)c(CC(=O)Oc1cncc(Cl)c1)c(C)n2C(=O)c1ccc(Cl)cc1 [Compound 11a, 5-chloropyridin-3-yl 2-(1-(4-chlorobenzoyl)-5-methoxy-2-methyl-1H-indol-3-yl)acetate]
enzyme inhibitory activity (in words) [3]: significant reduction in enzyme activity
EC50 ([1]; Severe acute respiratory syndrome coronavirus 2, Vero C1008, 72 h, read-out: SARS-CoV-2 EC50, VeroE6 cells, RNA-qPCR, MOI 0.05, 72 h): 30 µM
antiviral activity in the presence of P-glycoprotein inhibitor CP-100356 [2]: none of these compounds exhibited any significant antiviral activity

Cc1cccc(O)c1C(=O)Oc1cncc(Cl)c1 [C00015]
IC50 [3, 10]: 4260 nM
EC50 [1, 9]: > 100 µM

COc1ccc2cc([C@H](C)C(=O)Oc3cncc(Cl)c3)ccc2c1 [C00002]
IC50 [3, 10]: 670 nM
EC50 [1, 9]: > 100 µM

O=C(Oc1cncc(Cl)c1)c1cccs1 [Compound 2]
IC50 [7]: 500 nM
antiviral activity (in words) [8]: did not show antiviral activity
